Where two headings read alike, the source gives them in different places.
Key:
rats [1] = conditions: baclofen 1.25-5 mg/kg i.p. acute pretreatment; for at least four hours; cited from earlier work
male Wistar rats = conditions: baclofen; cited from earlier work
rats [2] = conditions: microinjection of baclofen into the ventral tegmental area; cited from earlier work
[3] = test system: extracellular DA in the NACC; experiment: Microdialysis: ethanol-induced increases in NACC DA; type: in vivo, rats; conditions: ethanol 1.0 g/kg i.p., approximately 125 minutes following administration
Description: Ethanol at a dose of 1.0 g/kg i.p. was administered to the animals.

serotonin (5-HT) = experiment: Microdialysis Example 15: extracellular serotonin after nicotine; type: in vivo; conditions: nicotine 0.4 mg/kg s.c., saline pretreated animals
Description: (§1) Briefly, two days prior to the microdialysis experiments, siliconized guide cannulae were implanted targeting the NAcc (A=+1.5 mm, L=−1.0 mm, V=−5.6 mm). […] Dialysate samples were assayed for monoamine content by microbore high-pressure liquid chromatography (HPLC) coupled with electrochemical detection. […] Peak effects were analyzed with a one-way ANOVA, and post-hoc Bonferroni t-test of topiramate pretreated groups compared to saline pretreated controls provided ANOVA significance at a critical value of 0.05.

[4] = test system: synaptic DA (11C-raclopride binding, striatum); experiment: Primate PET: 11C-raclopride mean DV ratio, GVG and nicotine; type: in vivo, baboons (Papio anubis)
Description: Adult female baboons (n=16) (Papio anubis, 13-18 kg) were used for all imaging studies and carbon-11 labeled raclopride (^11C-raclopride). […] Control animals (Group 1) received two injections of ^11C-raclopride without any drug intervention in order to determine the test/retest variability of the measurement. […] Arterial blood samples were obtained throughout the study and selected plasma samples were analyzed for the presence of unchanged ^11C-raclopride. Animals were not removed from the gantry between isotope injections.
Each primate (n=16) received two ^11C-raclopride injections. […] Test/retest primates (n=7, Group 1, Table XVI) received placebo (0.9% saline, 1 ml/kg) 30 mins prior to the second radiotracer injection in order to determine the test/retest variability of the method.

[5] = test system: extracellular DA in the NACC; experiment: In vivo microdialysis: nicotine-induced increases in extracellular NACC DA; set-up: species or system rats
Text: All animals were used under an IACUC-approved protocol and with strict adherence to the NIH guidelines. Adult male Sprague-Dawley rats (200-300 g, Taconic Farms), housed in the animals care facility under 12:12 light/dark conditions, were placed into 6 groups (n=5-9), anesthetized and siliconized guide cannulae were stereotactically implanted into the right NACC (2.0 mm anterior and 1.0 mm lateral to bregms, and 7.0 mm ventral to the cortical surface) at least 4 days prior to study. […] Animals were placed in bowls, and probes were inserted and flushed with ACSF overnight. On the day of the study, a minimum of three samples were injected to determine baseline stability. Samples were collected for 20 min. and injected on-line (CMA/160, BAS). The average Dopamine concentration of these three stable samples was defined as control (100%), and all subsequent treatment values were transformed to a percentage of that control. […] The high performance liquid chromatography (HPLC) system consists of a BAS reverse-phase column (3.0 μC-18), a BAS LC-4C electrochemical transducer with a dual/glassy carbon electrode set at 650 mV, a computer that analyzes data on-line using a commercial software package (Chromograph Bioanalytical Systems), and a dual pen chart recorder. The mobile phase (flow rate 1.0 ml/min) consisted of 7.0% methanol, 50 mM sodium phosphate monobasic, 1.0 mM sodium octyl sulfate, and 0.1 mm EDNA, pH 4.0. […] Upon completion of the study, animals were decapitated and frozen sections were obtained for probe placement verification.
The open circles are control animals.
In all studies, animals were placed in the microdialysis bowls the night before the experiment and artificial cerebrospinal fluid (ACSF) was perfused through the microdialysis probes at a flow rate of 2.0 μl/min. At the end of each study, animals were sacrificed and their brains were removed and sectioned for probe placement verification.

[6] = test system: mesolimbic extracellular dopamine (DA), NAcc; experiment: Microdialysis Example 15: extracellular dopamine after nicotine; type: in vivo; conditions: nicotine 0.4 mg/kg s.c., saline pretreated animals
Description: as §1

norepinephrine (NE) = experiment: Microdialysis Example 15: extracellular norepinephrine after nicotine; type: in vivo; conditions: nicotine 0.4 mg/kg s.c., saline pretreated animals
Description: as §1

[7] = test system: extracellular DA levels in the NACC; conditions: cited from earlier work
rats [8] = experiment: Nicotine-induced conditioned place preference; type: in vivo
Text: A total of 8 rats were examined for each treatment pairing. Animals received 4 pairings over an 8 day period, one pairing per day. […] The protocol on days 1 and 2 was repeated 3 additional times.
The CPP apparatus was made entirely of plexiglass, except for the floor in one of the pairing chambers, which was made of a stainless steel plate with holes (0.5 mm in diameter) spaced 0.5 mm from edge to edge. The two pairing chambers differed in visual and tactile cues. One chamber was entirely light blue with the stainless steel floor and the second chamber was light blue with horizontal black stripes (2.5 cm wide) spaced 3.8 cm apart with a smooth plexiglass floor.
The conditioning procedure consisted of 20 sessions carried out consecutively over 20 days. The first three sessions were habituation sessions, during which the animals were handled for 5 minutes per day and exposed to the sights and sounds of the test room. […] The amount of time spent in each chamber was recorded using an automated infrared beam electronically coupled to a timer.
The animals were habituated as described above. […] Subsequently, the animals were then placed into the appropriate chamber for 30 minutes. This was repeated for 8 pairings over a 16 day period. On the test day, animals were placed in the CPP apparatus and allowed free access to the all of the CPP chambers and the amount of time spent in chamber was recorded.

Sprague-Dawley rats = experiment: Gross locomotor activity during microdialysis (infrared motion sensor); conditions: nicotine, regardless of the dose of GVG
Description: In parallel to the quantitative estimates of dopamine concentration, the locomotor response of these animals to stimulant administration was simultaneously quantified using an infrared motion sensor. This infrared optical proximity detector monitored movement of the gimbaled arm, an integral component of the freely moving system. The digital output of the detector was interfaced with an IBM personal computer and programmed to count both positive and negative arm deflections. […] Locomotor activity was then expressed as the number of deflections per sample interval.

GABAB receptors = biological target: T1, GABAB receptors (Rattus norvegicus, UniProt Q9Z0U4); conditions: 2-hydroxysaclofen; cited from earlier work
T1 construct: microinjection of baclofen (0.1-1 nmol) into the ventral tegmental area; host or cells: ventral tegmental area of living animals (endogenous receptor)

[9] = test system: extracellular DA levels in the NACC; conditions: SCH 50911 alone; cited from earlier work
NAc DA = experiment: Microdialysis: cocaine/heroin (speedball) induced increases in NAc DA; type: in vivo, rats
Description: In vivo microdialysis studies were performed using adult male Sprague-Dawley rats (Taconic Farms) as detailed previously (Morgan and Dewey, 1998). Cocaine, a dopamine reuptake inhibitor, (n=6-8) was administered (i.p.) at a dose of 20 mg/kg while heroin, an indirect dopamine releaser, (n=6-8) was administered (i.p.) at a dose of 0.5 mg/kg. In studies designed to investigate the synergistic effects of a cocaine/heroin combination (n=6-8), both drugs were administered at the identical dose used in the single drug studies. Alone cocaine produced a marked elevation in extracellular DA of approximately 380% above baseline values, 60 minutes following administration. DA returned to baseline within 120 minutes. In contrast, heroin increased NAc DA by only 70%, 60 minutes following administration, returning to baseline within 140 minutes. However, when combined, the two drugs produced an increase in NAc DA of approximately 1000%, 180 minutes following administration that had not returned to baseline values by 200 minutes after reaching peak values (FIG. 9).

cocaine abuser = conditions: case report; cited from earlier work
[10] = test system: extracellular DA in the NACC; experiment: Microdialysis: methamphetamine-induced increases in NACC DA; type: in vivo, rats
Text: All animals were used under an IACUC-approved protocol and with strict adherence to the NIH guidelines. Adult male Sprague-Dawley rats (200-300 g, Taconic Farms), housed in the animals care facility under 12:12 light/dark conditions, were placed into 6 groups (n=5-9), anesthetized and siliconized guide cannulae were stereotactically implanted into the right NACC (2.0 mm anterior and 1.0 mm lateral to bregms, and 7.0 mm ventral to the cortical surface) at least 4 days prior to study. Microdialysis probes (2.0 mm, Bioanalytical Systems, BAS, West Lafayette, Ind.) were positioned within the guide cannulae and artificial cerebrospinal fluid (ACSF, 155.0 mM NA^−, 1.1 mM Ca^2−, 2.9 mM K^−, 132.76 mM Cl^−, and 0.83 mM Mg^2−) was administered through the probe using a CMA/100 microinfusion pump (BAS) at a flow rate of 2.0 μl/min. Animals were placed in bowls, and probes were inserted and flushed with ACSF overnight. On the day of the study, a minimum of three samples were injected to determine baseline stability. Samples were collected for 20 min. and injected on-line (CMA/160, BAS). The average Dopamine concentration of these three stable samples was defined as control (100%), and all subsequent treatment values were transformed to a percentage of that control. […] The high performance liquid chromatography (HPLC) system consists of a BAS reverse-phase column (3.0 μC-18), a BAS LC-4C electrochemical transducer with a dual/glassy carbon electrode set at 650 mV, a computer that analyzes data on-line using a commercial software package (Chromograph Bioanalytical Systems), and a dual pen chart recorder. The mobile phase (flow rate 1.0 ml/min) consisted of 7.0% methanol, 50 mM sodium phosphate monobasic, 1.0 mM sodium octyl sulfate, and 0.1 mm […], pH 4.0. DA eluted at 7.5 min. Upon completion of the study, animals were decapitated and frozen sections were obtained for probe placement verification.
Methamphetamine at a dose of 1.25 mg/kg i.p. and 2.5 mg/kg i.p. was administered to the animals. It was noted that methamphetamine elevated extracellular DA concentrations in the NACC by approximately 2500% over basal levels, 100 minutes following administration of 2.5 mg/kg and approximately 1500% over basal levels following administration of 1.25 mg/kg (FIG. 6). DA returned to basal levels approximately 200 minutes following administration.

GABAA receptor complex = conditions: in vivo; cited from earlier work
rat = conditions: cited from earlier work
[11] = Nicotine 0.4 mg/kg s.c./Vehicle, 4 pairings (Table XII)
[12] = acquisition, Saline/Nicotine 0.4 mg/kg s.c., 8 pairings (Table XV)
[13] = expression, Saline/Nicotine (0.4 mg/kg s.c.) 8 pairings, saline on test day
[14] = expression, Saline/Nicotine (0.4 mg/kg s.c.) 8 pairings, saline on test day, listed as nicotine

T1 sequence (Q9Z0U4 17-960 limits assumed): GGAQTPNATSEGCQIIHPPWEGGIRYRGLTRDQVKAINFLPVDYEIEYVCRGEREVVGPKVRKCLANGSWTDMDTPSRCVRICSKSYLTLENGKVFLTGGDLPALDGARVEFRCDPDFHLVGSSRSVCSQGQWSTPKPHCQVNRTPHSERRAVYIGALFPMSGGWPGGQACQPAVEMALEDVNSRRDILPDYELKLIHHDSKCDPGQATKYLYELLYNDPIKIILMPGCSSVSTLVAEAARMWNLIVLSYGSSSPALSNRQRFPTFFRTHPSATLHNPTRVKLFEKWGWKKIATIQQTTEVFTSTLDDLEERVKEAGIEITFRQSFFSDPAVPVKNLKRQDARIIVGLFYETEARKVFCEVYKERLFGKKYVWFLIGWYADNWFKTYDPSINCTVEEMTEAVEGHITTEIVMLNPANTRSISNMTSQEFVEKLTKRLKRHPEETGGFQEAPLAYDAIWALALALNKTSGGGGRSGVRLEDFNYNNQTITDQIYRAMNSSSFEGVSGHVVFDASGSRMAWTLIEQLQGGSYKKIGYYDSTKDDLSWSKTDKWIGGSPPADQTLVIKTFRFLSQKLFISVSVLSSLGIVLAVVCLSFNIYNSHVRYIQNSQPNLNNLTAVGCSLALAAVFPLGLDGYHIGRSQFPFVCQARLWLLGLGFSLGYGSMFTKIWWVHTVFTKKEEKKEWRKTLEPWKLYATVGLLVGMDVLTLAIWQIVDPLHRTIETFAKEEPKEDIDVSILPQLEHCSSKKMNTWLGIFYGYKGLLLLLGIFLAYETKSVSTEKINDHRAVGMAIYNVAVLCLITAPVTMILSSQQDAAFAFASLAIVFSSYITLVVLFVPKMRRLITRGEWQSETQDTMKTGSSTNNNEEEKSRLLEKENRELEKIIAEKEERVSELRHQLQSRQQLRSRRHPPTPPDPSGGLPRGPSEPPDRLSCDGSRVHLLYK
T1 sequence (O88871 41-940 partner): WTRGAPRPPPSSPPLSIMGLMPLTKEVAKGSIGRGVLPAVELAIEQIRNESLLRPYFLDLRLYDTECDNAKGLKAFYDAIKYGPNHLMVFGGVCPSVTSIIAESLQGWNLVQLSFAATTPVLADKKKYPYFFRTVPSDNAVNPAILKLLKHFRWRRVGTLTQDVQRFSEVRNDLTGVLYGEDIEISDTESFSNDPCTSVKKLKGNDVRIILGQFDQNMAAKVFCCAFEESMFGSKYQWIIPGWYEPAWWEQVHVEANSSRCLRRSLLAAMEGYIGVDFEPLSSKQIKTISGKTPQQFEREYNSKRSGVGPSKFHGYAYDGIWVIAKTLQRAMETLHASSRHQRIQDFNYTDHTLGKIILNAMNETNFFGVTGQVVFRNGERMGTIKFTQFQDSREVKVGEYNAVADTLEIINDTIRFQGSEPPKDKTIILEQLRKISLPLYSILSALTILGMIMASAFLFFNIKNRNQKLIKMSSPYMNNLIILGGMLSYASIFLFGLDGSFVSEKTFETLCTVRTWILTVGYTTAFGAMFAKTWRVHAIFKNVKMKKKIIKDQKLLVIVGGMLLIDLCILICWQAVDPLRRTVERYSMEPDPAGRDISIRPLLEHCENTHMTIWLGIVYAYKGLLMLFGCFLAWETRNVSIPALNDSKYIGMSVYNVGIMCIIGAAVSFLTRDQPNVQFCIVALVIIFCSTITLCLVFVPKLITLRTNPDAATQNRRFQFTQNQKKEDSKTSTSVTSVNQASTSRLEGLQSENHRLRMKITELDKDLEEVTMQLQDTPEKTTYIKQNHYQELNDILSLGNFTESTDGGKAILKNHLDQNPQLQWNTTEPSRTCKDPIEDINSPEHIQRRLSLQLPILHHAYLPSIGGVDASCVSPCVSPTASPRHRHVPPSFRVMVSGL

**Q.** With `NCC(CC(=O)O)c1ccc(Cl)cc1` (centres unmarked) [baclofen] as the molecule, how does the self-administration of cocaine (rats [1]) read?
**A.** suppress self-administration of cocaine

**Q.** And the “break points for intravenous administration of cocaine” value (male Wistar rats)?
**A.** dose-dependent decrease

**Q.** And the “rate of drug intake” value (male Wistar rats)?
**A.** did not affect the rate of drug intake

**Q.** What about the “rate-current intensity curve of lateral hypothalamus stimulation” value (rats [2]) of the same molecule?
**A.** rightward shift of the rate-current intensity curve

**Q.** With `CCO` [Ethanol] as the molecule, how does the “elevation of extracellular DA concentrations in the NACC over basal levels” value [3] read?
**A.** approximately 200%

**Q.** Which results are given for `CN1CCC[C@H]1c1cccnc1` [Nicotine]?
**A.** 5-HT increase (serotonin (5-HT)): 116±11.2%; reduction of the mean DV ratio ([4]; Group 3: nicotine alone): 12%; % Change in Mean DV Ratio ([4]; Group 3: nicotine alone 0.3 mg total, 30 minutes prior to second 11C-raclopride injection): −12.3 ± 2.6%; increase of NACC DA levels (rank order) ([5]; nicotine): 90%; time for DA to return to basal levels ([5]; nicotine 0.4 mg/kg s.c., Group 1): approximately 160 minutes; DA levels, % of basal levels ([5]; nicotine 0.4 mg/kg s.c., Group 1 (naive)): approximately 200%; increase in extracellular DA concentrations in the NACC ([5]; nicotine 0.4 mg/kg s.c., Group 1 (naive), 80 minutes following administration): approximately 100%; DA increase [6]: 70±10.5%; NE increase (norepinephrine (NE)): 176±26%; increase in extracellular DA levels in the NACC ([7]; nicotine 0.6 mg/kg s.c.): 220%; increase in extracellular DA levels in the NACC ([7]; nicotine 0.8 mg/kg s.c.): 179%; Time spent in chambers, Paired (rats [8]; [11]): 9.4 ± 0.5 min; Time spent in chambers, Unpaired (rats [8]; [11]): 5.6 ± 0.5 min; Time spent in chambers, Paired (rats [8]; [12]): 9.6 ± 0.6^1 min; Time spent in chambers, Unpaired (rats [8]; [12]): 5.4 ± 0.6 min; Time spent in chambers, Paired (rats [8]; [13]): 9.6 ± 0.6 min; Time spent in chambers, Unpaired (rats [8]; [13]): 5.4 ± 0.6 min; Time spent in chambers, Paired (rats [8]; [14]): 9.6 ± 0.6 min; Time spent in chambers, Unpaired (rats [8]; [14]): 5.4 ± 0.6 min; gross locomotor activity (Sprague-Dawley rats): increased gross locomotor activity

**Q.** Which “effect of baclofen on morphine CPP” value (GABAB receptors) does the source give for `NCC(O)(CS(=O)(=O)O)c1ccc(Cl)cc1` (centres unmarked) [2-hydroxysaclofen] here?
**A.** antagonized

**Q.** Which “DA levels when given alone” value [9] does the source give for `CC1(C)CO[C@@H](CC(=O)O)CN1` [SCH 50911] here?
**A.** does not significantly alter DA levels

**Q.** With `CC(=O)Oc1ccc2c3c1O[C@H]1[C@@H](OC(C)=O)C=C[C@H]4[C@@H](C2)N(C)CC[C@@]341` [heroin] as the molecule, how does the “time for DA to return to baseline” value (NAc DA; cocaine 20 mg/kg i.p. or heroin 0.5 mg/kg i.p. alone) read?
**A.** ≤ 140 min

**Q.** And the “increase in NAc DA” value (NAc DA; heroin alone 0.5 mg/kg i.p., 60 minutes following administration)?
**A.** 70%

**Q.** With `NCC1(CC(=O)O)CCCCC1` [gabapentin] as the molecule, how does the “cocaine withdrawal and craving” value (cocaine abuser) read?
**A.** attenuated cocaine withdrawal and craving

**Q.** What does the source list for `CN[C@@H](C)Cc1ccccc1` [methamphetamine]?
**A.** time for DA to return to basal levels ([10]; methamphetamine): approximately 200 minutes; elevation of extracellular DA concentrations in the NACC over basal levels ([10]; methamphetamine 1.25 mg/kg i.p.): approximately 1500%

**Q.** Which “rate of cocaine self-administration” value (GABAA receptor complex) does the source give for `Cc1nnc2n1-c1ccc(Cl)cc1C(c1ccccc1)=NC2` [alprazolam] here?
**A.** decreased the rate of cocaine self-administration

**Q.** Which “conditioned place preference or aversion, alone” value (rat; progabide alone) does the source give for `NC(=O)CCC/N=C(\c1ccc(Cl)cc1)c1cc(F)ccc1O` [progabide] here?
**A.** does not produce conditioned place preference or aversion

**Q.** What about the “CPP response to […] i.p. of amphetamine” value (rat; progabide pretreatment, present for 35 minutes) of the same molecule?
**A.** did not alter the CPP response

Reference: patent publication US6890951B2, “Treatment of addiction and addiction-related behavior” (Brookhaven Science Associates LLC, priority 1998, dated 2005)
